Entries after “also recorded” stand apart in the source; their conditions may differ.
Biological target: T1, bovine thymus VDR (Bos taurus, UniProt Q28037)
T1 construct: commercially available reagents of bovine thymus VDR; purchased Incstar (Stillwater, Minn.); host or cells: bovine thymus
T1 sequence (Q28037 1-426): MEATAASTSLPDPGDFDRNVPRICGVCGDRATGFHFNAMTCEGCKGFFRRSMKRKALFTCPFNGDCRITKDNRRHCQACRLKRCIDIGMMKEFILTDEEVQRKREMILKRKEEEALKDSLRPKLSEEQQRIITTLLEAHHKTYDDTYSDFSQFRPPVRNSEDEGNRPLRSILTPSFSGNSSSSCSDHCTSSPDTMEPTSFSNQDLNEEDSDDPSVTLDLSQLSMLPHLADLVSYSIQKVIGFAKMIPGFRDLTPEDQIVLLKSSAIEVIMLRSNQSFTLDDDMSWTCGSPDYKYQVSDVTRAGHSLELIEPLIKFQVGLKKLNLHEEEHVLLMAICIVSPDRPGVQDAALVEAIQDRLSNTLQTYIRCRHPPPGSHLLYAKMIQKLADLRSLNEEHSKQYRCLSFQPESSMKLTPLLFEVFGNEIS
Test: Radioreceptor assay, displacement of 3H-1α,25-(OH)2D3 tracer from bovine thymus VDR
Assay type: binding
Procedure: Purified 1α,24(S)-(OH)2D2 was quantitated by photodiode array spectrophotometry and assayed in the radioreceptor assay.
The purified 1α,24(R)-(OH)2D2 and 1α,24(S)-(OH)2D2 epimers were quantitated by ultraviolet spectroscopy.
The binding affinities of the environmentally exposed compounds, crystalline 1α,24-dihydroxyvitamin D2 and powdered 1α,24-dihydroxyvitamin D2, to the vitamin D receptor (VDR) were assessed using methods known in the art, as described, e.g., in Example 6. […] The percent bound versus amount of compound in pg/tube are graphed in FIG. 5.

- IC50 (radioreceptor assay, Incstar kit, read-out: half-maximal binding (converted)): ~350 pM
SMILES: C=C1/C(=C\C=C2/CCC[C@]3(C)[C@@H]([C@H](C)/C=C/[C@@](C)(O)C(C)C)CC[C@@H]23)C[C@@H](O)C[C@@H]1O [1α,24(S)-(OH)2D2, 1α,24(S)-dihydroxyvitamin D2]
- affinity for VDR relative to 1α,25-(OH)2D3: two-fold lower affinity; also recorded: two-fold less competitive

Source: patent publication US6538037B2, “Methods for preparation and use of 1α,24(S)-dihydroxyvitamin D2” (Bone Care International, Inc., priority 1991, dated 2003)
